{"source": "paper PMC10313368", "about": "(The Journal of Clinical Investigation, 2023)", "key": {"HUVECs": {"system": "HUVECs", "experiment": "mRNA angiogenesis array (TaqMan Array qPCR) in HUVECs", "format": "cell-based, human", "parameters": "ANG,RNASE4, array raw value (Figure 8B, well A10) / GAPDH, array raw value (Figure 8B, well A2) / EDIL3, array raw value (Figure 8B, well B2) / FGF1, array raw value (Figure 8B, well B4) / TIMP2, array raw value (Figure 8B, well E10) / SEMA3F, array raw value (Figure 8B, well E6) / CEACAM1, array raw value (Figure 8B, well F2) / LYVE1, array raw value (Figure 8B, well F6): scale not given here", "procedure": "Angiogenesis array. Total RNA was isolated from MIO-MI cells (8 hours) and HUVECs (16 […]\ncDNA was prepared with QuantiTect® Reverse Transcription Kit (Qiagen, Cat# 205311). RT-qPCR assay was performed with pre-configured TaqMan Array 96-Well FAST Plate for human angiogenic gene expression (Applied Biosystems, Inc) following the manufacture’s protocol. Each plate contains pre-defined genes including 18S, GAPDH and HPRT1 endogenous controls.\nTaqMan Array plates were prepared by loading on each well 5 μl of cDNA sample (30 ng) with nuclease-free water and 5 μl of TaqMan™ Fast Advanced Master Mix (Applied Biosystem, Cat# […]\n4444554). The reaction was performed using the QuantStudio™ 3 Flex Real‐Time PCR System as follows: 2 minutes at 50°C (stage 1); 10 minutes at 95°C (stage 2); 15 seconds at 95°C and 1 minutes at 60°C for 40 cycles (stage 3). The data were analyzed by using HPRT1 as endogenous […]\nThe clustering heatmaps were produced with “pheatmap” library in R with scale = row and clustering method = complete.\nHUVEC cells, Euclidean distance was used to quantify the difference in qPCR screening. The Euclidean distance was calculated using “dist” function from R’s default stat library that measures the distance between 2 vectors (i.e., total qPCR expression values in control and treatment). In […]"}, "HIF-1α": {"molecular_target": "HIF-1α (Homo sapiens, UniProt Q16665)", "sequence (Q16665 whole entry)": "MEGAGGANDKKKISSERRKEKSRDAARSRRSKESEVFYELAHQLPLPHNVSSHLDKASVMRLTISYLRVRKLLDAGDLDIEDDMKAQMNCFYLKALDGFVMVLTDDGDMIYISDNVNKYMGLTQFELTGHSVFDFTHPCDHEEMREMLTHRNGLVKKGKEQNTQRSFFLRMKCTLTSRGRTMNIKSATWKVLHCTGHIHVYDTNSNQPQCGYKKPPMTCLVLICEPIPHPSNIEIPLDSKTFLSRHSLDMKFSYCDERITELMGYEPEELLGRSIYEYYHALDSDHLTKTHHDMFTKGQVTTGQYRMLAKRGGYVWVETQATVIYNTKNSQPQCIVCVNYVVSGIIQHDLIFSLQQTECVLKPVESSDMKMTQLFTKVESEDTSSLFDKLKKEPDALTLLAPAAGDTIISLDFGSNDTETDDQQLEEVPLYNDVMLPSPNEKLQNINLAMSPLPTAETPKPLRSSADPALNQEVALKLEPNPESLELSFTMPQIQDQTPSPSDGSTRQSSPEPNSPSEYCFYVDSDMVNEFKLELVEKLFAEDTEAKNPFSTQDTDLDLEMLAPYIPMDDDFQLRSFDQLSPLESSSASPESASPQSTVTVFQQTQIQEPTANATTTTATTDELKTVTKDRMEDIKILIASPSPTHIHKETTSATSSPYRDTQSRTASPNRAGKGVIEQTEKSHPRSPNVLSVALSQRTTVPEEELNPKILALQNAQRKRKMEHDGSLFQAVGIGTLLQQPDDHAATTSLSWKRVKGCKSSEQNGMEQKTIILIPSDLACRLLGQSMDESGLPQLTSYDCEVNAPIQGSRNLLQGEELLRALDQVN", "experiment": "Immunoblot of HIF-1α accumulation in D120 hiPSC-derived retinal organoids in 1% O2", "format": "cell-based", "parameters": "endogenous in cells", "details": "1% O2 12 hours, 32-134D", "procedure": "(§1) An hiPSC line derived from CD34^+ cord blood was used in this study (A18945, Thermo Fisher Scientific) ([70]). Undifferentiated hiPSCs and derived retinal organoids were routinely tested for mycoplasma contamination by PCR. Cell culture, retinal differentiation, and organoid formation were conducted as previously described ([71]). Retinal organoids at D120 were used for experiments.\nImmunoblot assays. Cells, neurosensory retina, and D120 retinal organoid lysates were subjected\nto 4–15% gradient SDS/PAGE (Invitrogen). Immunoblot (Western blot or WB) assays were\nperformed as previously described (1). […]"}, "[1]": {"system": "hiPSC-derived 3D retinal organoids", "experiment": "qPCR of VEGF and ANGPTL4 mRNA in D120 hiPSC-derived retinal organoids in 1% O2", "format": "cell-based, human", "details": "for Vegfa mRNA / Angptl4 mRNA: 12 hours, 20% O2 about 1, replicates; for Vegfa mRNA: Figure 9F; for Angptl4 mRNA: Figure 9G", "procedure": "as §1, with “experiments. […]” for “experiments.”\nReverse transcription and quantitative real-time PCR. Total RNA was isolated from cultured cells or retinas with PureLinkTM RNA Mini Kit (Invitrogen #12183025), and cDNA was prepared with MuLV Reverse Transcriptase (Applied Biosystems). Quantitative real-time PCR was performed with Power SYBR Green PCR Master Mix (Applied Biosystems) and MyiQ Real-Time PCR Detection System (Bio-Rad). Normalization was done using cyclophilin A for mouse tissue and human cell lines. Primers are listed in Supplemental Table 2. […]"}}, "note": "Several values for one entry are separate records, joined by “and”; a condition that tells them apart may be missing. Equal entries are not always repeated."}
{"molecule": "Brc1ccc2c(-c3csc(-c4c[nH]c5c(Br)cccc45)n3)c[nH]c2c1", "note": "[32-134D, 4-(6-bromo-1H-indol-3-yl)-2-(7-bromo-1H-indol-3-yl)thiazole]", "values": [{"measurement": "PECAM1, array raw value (Figure 8B, well F5)", "setting": "HUVECs; HUVEC, 1%O2+32-134D", "value": 23.24}, {"measurement": "PF4, array raw value (Figure 8B, well D8)", "setting": "HUVECs; HUVEC, 1%O2+32-134D", "value": 38.4479}, {"measurement": "PLG, array raw value (Figure 8B, well A6)", "setting": "HUVECs; HUVEC, 1%O2+32-134D", "value": 36.8052}, {"measurement": "PROX1, array raw value (Figure 8B, well H12)", "setting": "HUVECs; HUVEC, 1%O2+32-134D", "value": 31.6234}, {"measurement": "PTN, array raw value (Figure 8B, well C2)", "setting": "HUVECs; HUVEC, 1%O2+32-134D", "value": 36.9532}, {"measurement": "S1PR1, array raw value (Figure 8B, well H11)", "setting": "HUVECs; HUVEC, 1%O2+32-134D", "value": 25.2945}, {"measurement": "SEMA3F, array raw value (Figure 8B, well E6)", "setting": "HUVECs; HUVEC, 1%O2+32-134D", "value": 31.8531}, {"measurement": "SERPINB5, array raw value (Figure 8B, well E4)", "setting": "HUVECs; HUVEC, 1%O2+32-134D", "value": 36.9759}, {"measurement": "SERPINC1, array raw value (Figure 8B, well A7)", "setting": "HUVECs; HUVEC, 1%O2+32-134D", "value": 34.8884}, {"measurement": "SERPINF1, array raw value (Figure 8B, well D7)", "setting": "HUVECs; HUVEC, 1%O2+32-134D", "value": 37.5691}, {"measurement": "TEK, array raw value (Figure 8B, well E7)", "setting": "HUVECs; HUVEC, 1%O2+32-134D", "value": 27.2772}, {"measurement": "TGFA, array raw value (Figure 8B, well C4)", "setting": "HUVECs; HUVEC, 1%O2+32-134D", "value": 29.7382}, {"measurement": "TGFB1, array raw value (Figure 8B, well C5)", "setting": "HUVECs; HUVEC, 1%O2+32-134D", "value": 24.01}, {"measurement": "THBS1, array raw value (Figure 8B, well C12)", "setting": "HUVECs; HUVEC, 1%O2+32-134D", "value": 23.1291}, {"measurement": "TIE1, array raw value (Figure 8B, well E8)", "setting": "HUVECs; HUVEC, 1%O2+32-134D", "value": 30.7653}, {"measurement": "TIMP2, array raw value (Figure 8B, well E10)", "setting": "HUVECs; HUVEC, 1%O2+32-134D", "value": 25.4299}, {"measurement": "TIMP3, array raw value (Figure 8B, well E11)", "setting": "HUVECs; HUVEC, 1%O2+32-134D", "value": 25.8838}, {"measurement": "TNFSF15, array raw value (Figure 8B, well D1)", "setting": "HUVECs; HUVEC, 1%O2+32-134D", "value": 25.7168}, {"measurement": "TNMD, array raw value (Figure 8B, well E9)", "setting": "HUVECs; HUVEC, 1%O2+32-134D", "value": 37.1045}, {"measurement": "TYMP, array raw value (Figure 8B, well B12)", "setting": "HUVECs; HUVEC, 1%O2+32-134D", "value": 39.1978}, {"measurement": "VASH1, array raw value (Figure 8B, well D9)", "setting": "HUVECs; HUVEC, 1%O2+32-134D", "value": 30.8647}, {"measurement": "VEGFA, array raw value (Figure 8B, well C7)", "setting": "HUVECs; HUVEC, 1%O2+32-134D", "value": 30.4927}, {"measurement": "VEGFB, array raw value (Figure 8B, well C8)", "setting": "HUVECs; HUVEC, 1%O2+32-134D", "value": 27.5522}, {"measurement": "VEGFC, array raw value (Figure 8B, well C9)", "setting": "HUVECs; HUVEC, 1%O2+32-134D", "value": 27.3225}, {"measurement": "ANGPTL4 mRNA (angiogenesis array, Figure 8C)", "setting": "HUVECs; HUVEC, Hy+32-134D, Normal = 1", "value": 35.2355}, {"measurement": "COL4A1 mRNA (angiogenesis array, Figure 8C)", "setting": "HUVECs; HUVEC, Hy+32-134D, Normal = 1", "value": 3.543}, {"measurement": "COL4A2 mRNA (angiogenesis array, Figure 8C)", "setting": "HUVECs; HUVEC, Hy+32-134D, Normal = 1", "value": 2.168}, {"measurement": "CTGF mRNA (angiogenesis array, Figure 8C)", "setting": "HUVECs; HUVEC, Hy+32-134D, Normal = 1", "value": 3.12}, {"measurement": "EPHB2 mRNA (angiogenesis array, Figure 8C)", "setting": "HUVECs; HUVEC, Hy+32-134D, Normal = 1", "value": 2.119}, {"measurement": "HSPG2 mRNA (angiogenesis array, Figure 8C)", "setting": "HUVECs; HUVEC, Hy+32-134D, Normal = 1", "value": 1.339}, {"measurement": "ITGB3 mRNA (angiogenesis array, Figure 8C)", "setting": "HUVECs; HUVEC, Hy+32-134D, Normal = 1", "value": 3.6621}, {"measurement": "MMP2 mRNA (angiogenesis array, Figure 8C)", "setting": "HUVECs; HUVEC, Hy+32-134D, Normal = 1", "value": 3.052}, {"measurement": "PDGFB mRNA (angiogenesis array, Figure 8C)", "setting": "HUVECs; HUVEC, Hy+32-134D, Normal = 1", "value": 2.63}, {"measurement": "PROX1 mRNA (angiogenesis array, Figure 8C)", "setting": "HUVECs; HUVEC, Hy+32-134D, Normal = 1", "value": 2.021}, {"measurement": "TGFA mRNA (angiogenesis array, Figure 8C)", "setting": "HUVECs; HUVEC, Hy+32-134D, Normal = 1", "value": 2.2277}, {"measurement": "TGFB1 mRNA (angiogenesis array, Figure 8C)", "setting": "HUVECs; HUVEC, Hy+32-134D, Normal = 1", "value": 1.578}, {"measurement": "TNMD mRNA (angiogenesis array, Figure 8C)", "setting": "HUVECs; HUVEC, Hy+32-134D, Normal = 1", "value": 1.388}, {"measurement": "VEGFA mRNA (angiogenesis array, Figure 8C)", "setting": "HUVECs; HUVEC, Hy+32-134D, Normal = 1", "value": 4.067}, {"measurement": "VEGFC mRNA (angiogenesis array, Figure 8C)", "setting": "HUVECs; HUVEC, Hy+32-134D, Normal = 1", "value": 3.879}, {"measurement": "reduction in the Euclidean distance between control and hypoxic cell angiogenic gene expression", "setting": "HUVECs; HUVECs, from 209 to 35", "value": 83, "unit": "%"}, {"measurement": "accumulation of HIF-1α protein", "setting": "HIF-1α", "value": "effectively prevented accumulation"}, {"measurement": "expression of HIF-regulated vasoactive mediators (in words)", "setting": "[1]; 1% O2 12 hours, 32-134D", "value": "effectively prevented"}, {"measurement": "Vegfa mRNA", "setting": "[1]; 1% O2+32-134D 1μM", "value": "2.046 and 2.085 and 1.848"}, {"measurement": "Angptl4 mRNA", "setting": "[1]; 1% O2+32-134D 1μM", "value": "5.344 and 5.73 and 5.861"}, {"measurement": "Vegfa mRNA", "setting": "[1]; 1% O2+32-134D 10μM", "value": "0.2069 and 0.1725 and 0.1726"}, {"measurement": "Angptl4 mRNA", "setting": "[1]; 1% O2+32-134D 10μM", "value": "0.1373 and 0.1287 and 0.1338"}]}
